According to paper PMC5431432, “Low-basicity 5-HT7 Receptor Agonists Synthesized Using the van Leusen Multicomponent Protocol” (Scientific Reports, 2017):
Read-outs that look alike come from different tables or passages of the source.

Key:
human 5-HT7 receptor = human 5-HT7 receptor (Homo sapiens, UniProt P34969); experiment: Functional assay, cAMP production (TR-FRET) in HEK293 cells overexpressing 5-HT7R; type: cell-based
human serotonin 5-HT7bR = human serotonin 5-HT7bR (Homo sapiens, UniProt P34969); experiment: Radioligand binding, [3H]-5-CT displacement
human serotonin 5-HT7bR, sequence (P34969 1-432 limits assumed): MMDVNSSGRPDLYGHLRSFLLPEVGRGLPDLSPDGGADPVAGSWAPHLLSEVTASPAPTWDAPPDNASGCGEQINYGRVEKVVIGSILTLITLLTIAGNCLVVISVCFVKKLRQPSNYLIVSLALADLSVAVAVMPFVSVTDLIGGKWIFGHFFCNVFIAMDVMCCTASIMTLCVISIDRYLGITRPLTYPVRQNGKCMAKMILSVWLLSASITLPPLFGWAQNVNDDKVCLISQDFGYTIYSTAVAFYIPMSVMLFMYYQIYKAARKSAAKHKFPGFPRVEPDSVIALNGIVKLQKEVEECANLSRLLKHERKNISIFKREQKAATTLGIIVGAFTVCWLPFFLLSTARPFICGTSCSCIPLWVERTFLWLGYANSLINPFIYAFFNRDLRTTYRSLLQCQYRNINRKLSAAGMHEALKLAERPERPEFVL

[1] = target: T1, human serotonin 5-HT2A receptor (Homo sapiens, UniProt P28223); experiment: Radioligand binding, [3H]-ketanserin displacement
T1 construct: host or cells: CHO-K1
T1 sequence (P28223 whole entry): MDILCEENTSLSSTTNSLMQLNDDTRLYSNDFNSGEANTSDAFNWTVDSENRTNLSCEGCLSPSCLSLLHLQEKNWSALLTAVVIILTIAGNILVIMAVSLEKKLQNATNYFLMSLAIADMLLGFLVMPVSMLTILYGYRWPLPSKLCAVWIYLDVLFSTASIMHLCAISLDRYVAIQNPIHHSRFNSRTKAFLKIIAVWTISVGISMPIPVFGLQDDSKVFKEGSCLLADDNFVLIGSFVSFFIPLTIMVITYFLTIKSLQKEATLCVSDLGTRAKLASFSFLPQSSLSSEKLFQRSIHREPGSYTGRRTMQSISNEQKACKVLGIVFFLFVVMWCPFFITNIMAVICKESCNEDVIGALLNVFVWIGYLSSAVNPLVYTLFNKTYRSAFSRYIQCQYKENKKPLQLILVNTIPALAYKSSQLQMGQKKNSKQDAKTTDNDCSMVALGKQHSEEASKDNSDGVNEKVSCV

human dopamine D2LR = human dopamine D2LR (Homo sapiens, UniProt P14416); experiment: Radioligand binding, [3H]-raclopride displacement
human dopamine D2LR, sequence (P14416 whole entry): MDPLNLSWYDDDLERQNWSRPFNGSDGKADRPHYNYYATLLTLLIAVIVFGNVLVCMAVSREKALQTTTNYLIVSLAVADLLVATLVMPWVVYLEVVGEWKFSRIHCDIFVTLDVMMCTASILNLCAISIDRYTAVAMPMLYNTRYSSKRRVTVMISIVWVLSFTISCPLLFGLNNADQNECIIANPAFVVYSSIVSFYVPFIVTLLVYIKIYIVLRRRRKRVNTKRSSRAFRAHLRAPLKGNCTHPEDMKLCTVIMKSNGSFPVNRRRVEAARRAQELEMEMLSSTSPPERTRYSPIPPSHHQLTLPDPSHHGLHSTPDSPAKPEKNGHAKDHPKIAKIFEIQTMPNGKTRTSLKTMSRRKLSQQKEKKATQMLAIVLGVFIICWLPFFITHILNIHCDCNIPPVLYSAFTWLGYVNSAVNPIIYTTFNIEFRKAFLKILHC

human serotonin 5-HT6R = human serotonin 5-HT6R (Homo sapiens, UniProt P50406); experiment: Radioligand binding, [3H]-LSD displacement
human serotonin 5-HT6R, sequence (P50406 whole entry): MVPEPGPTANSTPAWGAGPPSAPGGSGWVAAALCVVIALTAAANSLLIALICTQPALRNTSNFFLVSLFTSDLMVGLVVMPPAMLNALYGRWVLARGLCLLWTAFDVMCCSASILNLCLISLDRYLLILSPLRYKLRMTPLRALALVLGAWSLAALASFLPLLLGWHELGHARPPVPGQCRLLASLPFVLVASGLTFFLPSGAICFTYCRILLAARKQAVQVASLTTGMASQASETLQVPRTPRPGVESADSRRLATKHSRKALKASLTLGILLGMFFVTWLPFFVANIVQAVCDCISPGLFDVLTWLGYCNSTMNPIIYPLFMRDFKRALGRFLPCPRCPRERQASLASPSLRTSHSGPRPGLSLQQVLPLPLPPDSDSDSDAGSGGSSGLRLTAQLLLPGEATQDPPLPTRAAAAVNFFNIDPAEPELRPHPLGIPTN

human serotonin 5-HT1AR = target: T2, human serotonin 5-HT1AR (Homo sapiens, UniProt P08908); experiment: Radioligand binding, [3H]-8-OH-DPAT displacement
T2 sequence (P08908 1-422): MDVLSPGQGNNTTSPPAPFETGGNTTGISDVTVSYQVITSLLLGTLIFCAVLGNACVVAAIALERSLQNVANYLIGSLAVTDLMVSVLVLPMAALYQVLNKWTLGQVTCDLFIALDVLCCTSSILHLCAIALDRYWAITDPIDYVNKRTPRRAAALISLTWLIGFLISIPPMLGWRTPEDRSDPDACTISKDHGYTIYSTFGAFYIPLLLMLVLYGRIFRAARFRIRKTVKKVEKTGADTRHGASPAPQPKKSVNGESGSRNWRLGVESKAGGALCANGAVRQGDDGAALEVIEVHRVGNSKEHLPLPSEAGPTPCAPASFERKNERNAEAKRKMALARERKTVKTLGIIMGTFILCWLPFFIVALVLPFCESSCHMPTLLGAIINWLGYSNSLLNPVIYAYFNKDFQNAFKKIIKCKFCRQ

[2] = Fig. 2, read-out: pKi 5-HT7 (converted)
[3] = Fig. 2, read-out: pKi 5-HT2A (converted)
[4] = Fig. 2, read-out: pKi D2 (converted)
[5] = Fig. 2, read-out: pKi 5-HT6 (converted)
[6] = Fig. 2, read-out: pKi 5-HT1A (converted)

human 5-HT7 receptor, sequence (P34969 1-432 limits assumed): as the sequence (P34969 1-432 limits assumed) above

CCn1cncc1-c1c[nH]c2ccc(C)cc12 [1q]
function at the human 5-HT7 receptor (human 5-HT7 receptor): full agonists | EC50 (human 5-HT7 receptor; hydrochloride salts): 0.045 µM | Ki (human serotonin 5-HT7bR; read-out: K i (5-HT7R)): 0.044 µM

CCn1cncc1-c1c(C)[nH]c2ccc(OC)cc12 [1v]
Ki (human serotonin 5-HT7bR; [2]): > 10 µM | Ki [1, 3]: > 10 µM | Ki (human dopamine D2LR; [4]): > 10 µM | Ki (human serotonin 5-HT6R; [5]): > 10 µM | Ki (human serotonin 5-HT1AR; [6]): > 10 µM

COc1ccc2[nH]cc(-c3cnc[nH]3)c2c1 [1x]
Ki (human serotonin 5-HT7bR; [2]): 1.2 µM | Ki [1, 3]: 7.94 µM | Ki (human dopamine D2LR; [4]): 6.17 µM | Ki (human serotonin 5-HT6R; [5]): 4.07 µM | Ki (human serotonin 5-HT1AR; [6]): 6.76 µM

CCn1cncc1-c1c[nH]c2ccc(OCc3ccccc3)cc12 [1y]
Ki (human serotonin 5-HT7bR; [2]): 3.72 µM | Ki [1, 3]: > 10 µM | Ki (human dopamine D2LR; [4]): 4.47 µM | Ki (human serotonin 5-HT1AR; [6]): > 10 µM

CCn1cncc1-c1c[nH]c2ccc(C(N)=O)cc12 [1za, 3-(1-Ethyl-1H-imidazol-5-yl)-1H-indole-5-carboxamide]
Ki (human serotonin 5-HT7bR; read-out: Ki 5-HT7): 0.005 µM

COc1ccc(-c2c([N+](=O)[O-])ncn2C)cc1 [2a]
binding to 5-HT7R in words (human serotonin 5-HT7bR): did not bind | Ki (human serotonin 5-HT7bR; [2]): > 10 µM | Ki [1, 3]: > 10 µM | melting point: 171 °C | Ki (human dopamine D2LR; [4]): > 10 µM | Ki (human serotonin 5-HT6R; [5]): > 10 µM | binding to 5-HT1AR in words (human serotonin 5-HT1AR): did not bind | Ki (human serotonin 5-HT1AR; [6]): > 10 µM

COc1ccc(-c2cncn2C)cc1 [2b]
binding to 5-HT7R in words (human serotonin 5-HT7bR): completely inactive | Ki (human serotonin 5-HT7bR; [2]): > 10 µM | Ki [1, 3]: > 10 µM | Ki (human dopamine D2LR; [4]): > 10 µM | Ki (human serotonin 5-HT6R; [5]): 5.37 µM | Ki (human serotonin 5-HT1AR; [6]): > 10 µM

COc1cccc(-c2cncn2C)c1 [2c]
Ki (human serotonin 5-HT7bR; [2]): > 10 µM | Ki [1, 3]: > 10 µM | Ki (human dopamine D2LR; [4]): > 10 µM | Ki (human serotonin 5-HT6R; [5]): 8.91 µM | Ki (human serotonin 5-HT1AR; [6]): > 10 µM

COc1ccccc1-c1cncn1C [2d]
Ki (human serotonin 5-HT7bR; [2]): 2.45 µM | Ki [1, 3]: > 10 µM | Ki (human dopamine D2LR; [4]): > 10 µM | Ki (human serotonin 5-HT6R; [5]): > 10 µM | Ki (human serotonin 5-HT1AR; [6]): > 10 µM

Cn1cncc1-c1ccccc1 [2e]
Ki (human serotonin 5-HT7bR; [2]): > 10 µM | Ki [1, 3]: > 10 µM | Ki (human dopamine D2LR; [4]): > 10 µM | Ki (human serotonin 5-HT6R; [5]): > 10 µM | Ki (human serotonin 5-HT1AR; [6]): > 10 µM

COc1cc(-c2cncn2C)c(OC)cc1I [2f]
Ki (human serotonin 5-HT7bR; [2]): > 10 µM | Ki [1, 3]: > 10 µM | Ki (human dopamine D2LR; [4]): 6.92 µM | Ki (human serotonin 5-HT6R; [5]): 5.37 µM | Ki (human serotonin 5-HT1AR; [6]): > 10 µM

CCn1cncc1-c1cc2ccccc2[nH]1 [3b]
Ki (human serotonin 5-HT7bR; [2]): > 10 µM | Ki [1, 3]: > 10 µM | Ki (human dopamine D2LR; [4]): > 10 µM | Ki (human serotonin 5-HT6R; [5]): > 10 µM | Ki (human serotonin 5-HT1AR; [6]): > 10 µM

CCn1cncc1-c1ccc2[nH]ccc2c1 [3c]
Ki (human serotonin 5-HT7bR; [2]): 5.25 µM | Ki [1, 3]: > 10 µM | Ki (human dopamine D2LR; [4]): > 10 µM | Ki (human serotonin 5-HT6R; [5]): 3.55 µM | Ki (human serotonin 5-HT1AR; [6]): > 10 µM

CCn1cncc1-c1ccc2cc[nH]c2c1 [3d]
Ki (human serotonin 5-HT7bR; [2]): 2.63 µM | Ki [1, 3]: > 10 µM | Ki (human dopamine D2LR; [4]): > 10 µM | Ki (human serotonin 5-HT6R; [5]): 4.57 µM | Ki (human serotonin 5-HT1AR; [6]): > 10 µM

NCCc1c[nH]c2ccc(Cl)cc12 [5-chlorotryptamine, reference compound]
Ki (human serotonin 5-HT7bR): 0.016 µM | Ki [1]: 0.317 µM | Ki (human dopamine D2LR): 2.44 µM | Ki (human serotonin 5-HT6R): 0.038 µM | Ki (human serotonin 5-HT1AR): 0.016 µM

COc1ccc2[nH]cc(CCN)c2c1 [5-methoxytryptamine, reference compound]
Ki (human dopamine D2LR): > 10 µM

Cc1ccc2[nH]cc(CCN)c2c1 [5-methyltryptamine, reference compound]
Ki (human serotonin 5-HT7bR): 0.026 µM | Ki [1]: 2.28 µM | Ki (human dopamine D2LR): > 10 µM | Ki (human serotonin 5-HT6R): 0.327 µM | Ki (human serotonin 5-HT1AR): 0.039 µM
